Source: US11185531B2, “Arginine methyltransferase inhibitors and uses thereof” (Epizyme, Inc., priority 2013, dated 2021)

Assays:
human PRMT1 = target: T1, human PRMT1 (Homo sapiens, UniProt Q99873); test: PRMT1 Biochemical Assay (3H-SAM Flashplate, peptide substrate); settings: 30 min preincubation
T1 construct: GST-tagged PRMT1; made in house; host or cells: High Five insect cells (baculovirus)
From the text: (§1) Peptide representative of human histone H4 residues 36-50 was synthesized with an N-terminal linker-affinity tag motif and a C-terminal amide cap by 21st Century Biochemicals. The peptide was purified by high-performance liquid chromatography (HPLC) to greater than 95% purity and confirmed by liquid chromatography mass spectrometry (LC-MS). The sequence was Biot-Ahx-[…]-amide (SEQ ID NO.: 1).
Full-length human PRMT1 isoform 1 (NM_001536.5) transcript clone was amplified from an HEK 293 cDNA library, incorporating flanking 5′ sequence encoding a FLAG tag ([…]) (SEQ ID NO:2) fused directly to Met 1 of PRMT1. The amplified gene was subcloned into pFastBacI (Life Technologies) modified to encode an N-terminal GST tag and a TEV cleavage sequence
GST-tagged PRMT1 was eluted with 50 mM Tris, 2 mM glutathione, pH 7.8, dialysed in buffer A and concentrated to 1 mg/mL. The purity of recovered protein was 73%. Reference: Wasilko, D. J. and S. E. Lee: “TIPS: titerless infected-cells preservation and scale-up” Bioprocess J., 5 (2006), pp. 29-32.
General Procedure for PRMT1 Enzyme Assays on Peptide Substrates.
The assays were all performed in a buffer consisting of 20 mM Bicine (pH=7.6), 1 mM TCEP, 0.005% BSG, and 0.002% Tween 20, prepared on the day of use. Compounds in 100% DMSO (1 ul) were spotted into a polypropylene 384-well V-bottom plates (Greiner) using a Platemate Plus outfitted with a 384-channel head (Thermo Scientific). DMSO (1 ul) was added to Columns 11, 12, 23, 24, rows A-H for the maximum signal control and 1 ul of SAH, a known product and inhibitor of PRMT1, was added to columns 11, 12, 23, 24, rows I-P for the minimum signal control. A cocktail (40 ul) containing the PRMT1 enzyme was added by Multidrop Combi (Thermo-Fisher). The compounds were allowed to incubate with PRMT1 for 30 min at room temperature, then a cocktail (10 ul) containing SAM and peptide was added to initiate the reaction (final volume=51 ul). The final concentrations of the components were as follows: PRMT1 was 0.5 nM, ^3H-SAM was 200 nM, non-radiolabeled SAM was 1.5 uM, peptide was 20 nM, SAH in the minimum signal control wells was 1 mM, and the DMSO concentration was 2%. The assays were stopped by the addition of non-radiolabeled SAM (10 ul) to a final concentration of 300 uM, which dilutes the ^3H-SAM to a level where its incorporation into the peptide substrate is no longer detectable. 50 ul of the reaction in the 384-well polypropylene plate was then transferred to a 384-well Flashplate and the biotinylated peptides were allowed to bind to the streptavidin surface for at least 1 hour before being washed once with 0.1% Tween20 in a Biotek ELx405 plate washer. The plates were then read in a PerkinElmer TopCount plate reader to measure the quantity of ^3H-labeled peptide bound to the Flashplate surface, measured as disintegrations per minute (dpm) or alternatively, referred to as counts per minute (cpm).
(§2) Where dpm=disintegrations per minute, cmpd=signal in assay well, and min and max are the respective minimum and maximum signal controls.
(§3) Where top and bottom are the normally allowed to float, but may be fixed at 100 or 0 respectively in a 3-parameter fit. The Hill Coefficient normally allowed to float but may also be fixed at 1 in a 3-parameter fit. Y is the % inhibition and X is the compound concentration.

human PRMT8 = target: T2, human PRMT8 (Homo sapiens, UniProt Q9NR22); test: PRMT8 Biochemical Assay (3H-SAM Flashplate, peptide substrate); settings: 30 min preincubation
T2 construct: Full-length human PRMT8 (NM_019854.4) isoform 1 transcript clone; GST (N, cleaved yes); made in house; host or cells: E. coli BL21(DE3) Gold
T2 sequence (Q9NR22 whole entry, canonical isoform): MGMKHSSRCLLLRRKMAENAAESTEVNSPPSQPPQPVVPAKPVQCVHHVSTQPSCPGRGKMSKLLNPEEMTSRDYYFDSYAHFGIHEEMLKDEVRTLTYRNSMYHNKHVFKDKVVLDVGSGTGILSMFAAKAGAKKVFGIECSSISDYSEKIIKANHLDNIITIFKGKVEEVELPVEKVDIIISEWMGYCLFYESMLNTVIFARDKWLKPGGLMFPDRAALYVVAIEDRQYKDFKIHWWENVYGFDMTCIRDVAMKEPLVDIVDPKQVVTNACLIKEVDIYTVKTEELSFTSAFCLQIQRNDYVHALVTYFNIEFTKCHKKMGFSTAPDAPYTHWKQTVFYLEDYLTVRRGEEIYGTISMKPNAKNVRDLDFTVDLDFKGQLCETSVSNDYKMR
From the text: as §1, with “31-45” for “36-50”, “NO:8).” for “NO.: 1).”
The resulting construct encodes an N-terminal GST tag and a thrombin cleavage sequence
GST-tagged PRMT8 was eluted with 50 mM Tris, 2 mM glutathione, pH 7.8. Pooled fractions were cleaved by thrombin (10 U) and dialysed in buffer A. GST was removed by reloading the cleaved protein sample onto glutathione sepharose column and PRMT8 was collected in the flow-through fractions. PRMT8 was purified further by ceramic hydroxyapatite chromatography. The column was washed with 50 mM phosphate buffer, 100 mM NaCl, 5% glycerol, 5 mM 3-mercaptoethanol, pH 7.8 and PRMT8 was eluted by 100 mM phosphate in the same buffer. Protein was concentrated and buffer was exchanged to 50 mM Tris, 300 mM NaCl, 10% glycerol, 5 mM β-mercaptoethanol, pH 7.8 by ultrafiltration. The purity of recovered protein was 89%.
General Procedure for PRMT8 Enzyme Assays on Peptide Substrates.
The assays were all performed in a buffer consisting of 20 mM Bicine (pH=7.6), 1 mM TCEP, 0.005% BSG, and 0.002% Tween 20, prepared on the day of use. Compounds in 100% DMSO (1 ul) were spotted into a polypropylene 384-well V-bottom plates (Greiner) using a Platemate Plus outfitted with a 384-channel head (Thermo Scientific). DMSO (1 ul) was added to Columns 11, 12, 23, 24, rows A-H for the maximum signal control and 1 ul of SAH, a known product and inhibitor of PRMT8, was added to columns 11, 12, 23, 24, rows I-P for the minimum signal control. A cocktail (40 ul) containing the PRMT8 enzyme was added by Multidrop Combi (Thermo-Fisher). The compounds were allowed to incubate with PRMT8 for 30 min at room temperature, then a cocktail (10 ul) containing ^3H-SAM and peptide was added to initiate the reaction (final volume=51 ul). The final concentrations of the components were as follows: PRMT8 was 1.5 nM, ^3H-SAM was 50 nM, non-radiolabeled SAM was 550 nM, peptide was 150 nM, SAH in the minimum signal control wells was 1 mM, and the DMSO concentration was 2%. The assays were stopped by the addition of non-radiolabeled SAM (10 ul) to a final concentration of 400 uM, which dilutes the ^3H-SAM to a level where its incorporation into the peptide substrate is no longer detectable. 50 ul of the reaction in the 384-well polypropylene plate was then transferred to a 384-well Flashplate and the biotinylated peptides were allowed to bind to the streptavidin surface for at least 1 hour before being washed once with 0.1% Tween20 in a Biotek ELx405 plate washer. The plates were then read in a PerkinElmer TopCount plate reader to measure the quantity of ^3H-labeled peptide bound to the Flashplate surface, measured as disintegrations per minute (dpm) or alternatively, referred to as counts per minute (cpm).
as §2, §3

T1 sequence (Q99873 with tags, fused parts or gaps): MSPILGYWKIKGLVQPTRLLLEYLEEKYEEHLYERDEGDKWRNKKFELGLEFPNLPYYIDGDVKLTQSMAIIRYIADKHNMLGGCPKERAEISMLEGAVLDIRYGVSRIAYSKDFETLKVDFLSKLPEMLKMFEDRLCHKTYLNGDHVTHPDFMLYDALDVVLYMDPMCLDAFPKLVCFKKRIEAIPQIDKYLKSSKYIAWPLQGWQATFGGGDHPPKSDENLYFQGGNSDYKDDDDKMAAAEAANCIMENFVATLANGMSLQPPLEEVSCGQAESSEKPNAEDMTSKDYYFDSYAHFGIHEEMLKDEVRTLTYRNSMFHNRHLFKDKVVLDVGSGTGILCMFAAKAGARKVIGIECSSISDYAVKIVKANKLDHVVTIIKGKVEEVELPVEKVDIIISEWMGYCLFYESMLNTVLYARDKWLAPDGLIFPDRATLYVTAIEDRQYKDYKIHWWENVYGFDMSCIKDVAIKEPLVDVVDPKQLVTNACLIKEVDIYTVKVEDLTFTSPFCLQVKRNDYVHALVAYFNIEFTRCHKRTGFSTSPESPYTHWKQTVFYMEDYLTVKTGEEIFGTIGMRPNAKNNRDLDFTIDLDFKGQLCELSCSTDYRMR

| SMILES | IC50 (human PRMT1) [µM] | IC50 (human PRMT8) [µM] |
| --- | --- | --- |
| Cc1ccc(/C=C/c2n[nH]cc2CN(C)CCN)cc1 [Compound 8] | < 0.1 | 0.101 to 1 |
| CC1CCC(c2n[nH]cc2CN(C)CCN)CC1 (stereo not drawn) [Compound 37, N^1-methyl-N^1-((3-(4-methylcyclohexyl)-1H-pyrazol-4-yl)methyl)ethane-1,2-diamine] | < 0.1 | 0.101 to 1 |
| CNCCN(C)Cc1c[nH]nc1/C=C/c1ccc(OC)cc1 [Compound 7] | < 0.1 | 0.101 to 1 |
| CN(CCN)Cc1c[nH]nc1/C=C/c1ccc(F)cc1F [Compound 13] | < 0.1 | 0.101 to 1 |
| CN(CCN)Cc1c[nH]nc1/C=C/c1cc(F)cc(F)c1 [Compound 15] | < 0.1 | 0.101 to 1 |
| CNCCN(C)Cc1c[nH]nc1C#Cc1ccc(C(C)(C)C)cc1 [Compound 2] | < 0.1 | 0.101 to 1 |
| CN(CCN)Cc1c[nH]nc1CCc1ccc(F)cc1 [Compound 23, N^1-((3-(4-fluorophenethyl)-1H-pyrazol-4-yl)methyl)-N^1-methylethane-1,2-diamine] | < 0.1 | 0.101 to 1 |
| CNCCN(C)Cc1c[nH]nc1C1CCN(C(=O)Cc2ccccc2)CC1 [Compound 32] | 0.101 to 1 | 1.01 to 3 |
| CNCCN(C)Cc1c[nH]nc1/C=C/c1ccc(-c2ccccc2)cc1 [Compound 5] | < 0.1 | 0.101 to 1 |
| CN(CCN)Cc1c[nH]nc1C1CCCC1 [Compound 31] | – | > 10 |
| CN(CCN)Cc1n[nH]cc1C1CCCCC1 [Compound 33] | < 0.1 | 0.101 to 1 |
| CCCc1n[nH]cc1CN(C)CCN [Compound 29] | 0.101 to 1 | 1.01 to 3 |
| CN(CCN)Cc1c[nH]nc1C1=CCOCC1 [Compound 10] | 0.101 to 1 | 1.01 to 3 |
| CNCCN(C)Cc1c[nH]nc1C#Cc1ccccc1 [Compound 3] | – | 0.101 to 1 |
| CN(CCN)Cc1c[nH]nc1C1CCC1 [Compound 26] | – | 3.01 to 10 |
| CN(CCN)Cc1c[nH]nc1/C=C/c1cccc(C(F)(F)F)c1 [Compound 16] | < 0.1 | 0.101 to 1 |
| CN(CCN)Cc1c[nH]nc1/C=C/c1cccc(F)c1 [Compound 20] | < 0.1 | 0.101 to 1 |
| CNCCN(C)Cc1c[nH]nc1C1CCN(C)CC1 [Compound 41] | < 0.1 | 3.01 to 10 |
| COC/C=C/c1n[nH]cc1CN(C)CCN [Compound 19] | 0.101 to 1 | 1.01 to 3 |
| CN(CCN)Cc1c[nH]nc1/C=C/Cc1ccccc1 [Compound 24] | < 0.1 | 0.101 to 1 |

| SMILES | IC50 (human PRMT1) [µM] | IC50 (human PRMT8) [µM] |
| --- | --- | --- |
| CN(CCN)Cc1c[nH]nc1/C=C/c1cc(C(F)(F)F)cc(C(F)(F)F)c1 [Compound 14] | < 0.1 | 0.101 to 1 |
| CNCCN(C)Cc1c[nH]nc1C#Cc1cccc(OC)c1 [Compound 1] | < 0.1 | 0.101 to 1 |
| CNCCN(C)Cc1c[nH]nc1C#Cc1ccc(F)cc1 [Compound 4] | < 0.1 | 0.101 to 1 |
| COc1cc(/C=C/c2n[nH]cc2CN(C)CCN)cc(OC)c1 [Compound 11] | < 0.1 | 0.101 to 1 |
| CC(C)Cc1n[nH]cc1CN(C)CCN [Compound 28, N^1-((3-iso-butyl-1H-pyrazol-4-yl)methyl)-N^1-methylethane-1,2-diamine] | 0.101 to 1 | 1.01 to 3 |
| CNCCN(C)Cc1c[nH]nc1/C=C/c1ccc(C(F)(F)F)cc1 [Compound 6] | < 0.1 | 0.101 to 1 |
| CNCCN(C)Cc1c[nH]nc1C1CCNCC1 [Compound 42] | < 0.1 | 0.101 to 1 |
| CN(CCN)Cc1c[nH]nc1C1CCCCC1 [Compound 22] | < 0.1 | 0.101 to 1 |
| CN(CCN)Cc1n[nH]cc1C1CCC(C)(C)CC1 [Compound 36] | < 0.1 | 0.101 to 1 |
| Cc1n[nH]cc1CN(C)CCN [Compound 30] | – | 3.01 to 10 |
| CN(CCN)Cc1n[nH]cc1C1CCC(N2CCOCC2)CC1 (stereo not drawn) [Compound 44, N^1-methyl-N^1-((4-(4-morpholinocyclohexyl)-1H-pyrazol-3-yl)methyl)ethane-1,2-diamine] | 1.01 to 3 | – |
| CN(CCN)Cc1c[nH]nc1/C=C/c1ccc(C(F)(F)F)cc1 [Compound 18] | < 0.1 | < 0.1 |
| CC1CCC(c2c[nH]nc2CN(C)CCN)CC1 (stereo not drawn) [Compound 35] | < 0.1 | 0.101 to 1 |
| CNCCN(C)Cc1c[nH]nc1C1CCN(C(=O)C(C)C)CC1 [Compound 34] | < 0.1 | 0.101 to 1 |
| CC(C)c1n[nH]cc1CN(C)CCN [Compound 21] | 1.01 to 3 | 3.01 to 10 |
| CN(CCN)Cc1c[nH]nc1C1=CCCC1 [Compound 25] | 0.101 to 1 | 1.01 to 3 |
| CN(CCN)Cc1c[nH]nc1C1CCC(C)(C)CC1 [Compound 38, N^1-((3-(4,4-dimethylcyclohexyl)-1H-pyrazol-4-yl)methyl)-N^1-methylethane-1,2-diamine] | < 0.1 | 0.101 to 1 |
| COc1cccc(/C=C/c2n[nH]cc2CN(C)CCN)c1 [Compound 17] | < 0.1 | 0.101 to 1 |
| CNCCN(C)Cc1c[nH]nc1C1CCN(CC(C)C)CC1 [Compound 39, N^1-((3-(1-isobutylpiperidin-4-yl)-1H-pyrazol-4-yl)methyl)-N^1,N^2-dimethylethane-1,2-diamine] | – | 0.101 to 1 |
